Source: publication PMC3478134 (Cancer cell, 2012)

Assays:
[1] = test system: MM cells from bortezomib-resistant patients; experiment: Viability of MM cells from bortezomib-resistant patients; format: cell-based, human; conditions: 12.5 nM, 48 hr, in 3 of 6 samples
[2] = test system: ANBL-6.WT cells; experiment: Cell viability, ANBL-6.WT; format: cell-based
[3] = test system: ANBL-6.BR cells; experiment: Cell viability, ANBL-6.BR; format: cell-based
[4] = test system: proteasome; experiment: Proteasome activity in MM.1S cells; format: cell-based, human; conditions: for Chymotrypsin-like (CT-L) proteasome activity: MM.1S cells, 3 hr
[5] = test system: HCT116 (WT) cells; experiment: MTT viability, HCT116; format: cell-based, human; conditions: 24, 48, 72 hr
[6] = test system: MM.1S cells; experiment: Viability of scr- or p21-siRNA transfected MM.1S cells; format: cell-based, human; conditions: 48 hr
[7] = biological target: USP5 (Homo sapiens, UniProt P45974); experiment: DUB inhibition in cells; format: cell-based; conditions: Fig S1A
Chain of USP5 (P45974 whole entry): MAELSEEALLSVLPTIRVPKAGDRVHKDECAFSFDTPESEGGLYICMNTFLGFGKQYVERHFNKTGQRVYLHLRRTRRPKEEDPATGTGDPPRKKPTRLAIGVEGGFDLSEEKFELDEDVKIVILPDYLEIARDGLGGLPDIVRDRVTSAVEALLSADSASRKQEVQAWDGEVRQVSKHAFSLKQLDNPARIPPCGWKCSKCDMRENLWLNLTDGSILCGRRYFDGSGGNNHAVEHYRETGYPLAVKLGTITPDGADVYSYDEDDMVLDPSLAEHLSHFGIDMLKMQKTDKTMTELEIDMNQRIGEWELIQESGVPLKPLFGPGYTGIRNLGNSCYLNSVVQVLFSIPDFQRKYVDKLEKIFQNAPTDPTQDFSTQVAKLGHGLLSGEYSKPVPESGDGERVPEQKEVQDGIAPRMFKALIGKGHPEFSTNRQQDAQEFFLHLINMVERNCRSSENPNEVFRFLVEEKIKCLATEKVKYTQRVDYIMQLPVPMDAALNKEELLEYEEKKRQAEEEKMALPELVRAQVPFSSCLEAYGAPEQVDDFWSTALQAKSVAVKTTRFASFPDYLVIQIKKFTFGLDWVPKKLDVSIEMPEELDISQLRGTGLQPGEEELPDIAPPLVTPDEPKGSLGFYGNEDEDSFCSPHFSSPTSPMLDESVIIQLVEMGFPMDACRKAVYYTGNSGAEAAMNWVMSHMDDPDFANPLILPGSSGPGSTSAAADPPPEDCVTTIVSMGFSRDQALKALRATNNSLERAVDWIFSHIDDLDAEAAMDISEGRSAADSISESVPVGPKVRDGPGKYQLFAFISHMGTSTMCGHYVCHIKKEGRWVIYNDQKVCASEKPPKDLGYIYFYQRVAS

[8] = test system: MM.1S MM tumors; experiment: Human MM.1S plasmacytoma xenograft
[9] = test system: ARP-1 MM cells; experiment: Viability, p53-null ARP-1 MM cells; format: cell-based, human; conditions: p53-null ARP-1, 48 hr
[10] = test system: ARP-1 MM tumors; experiment: Human p53-null ARP-1 MM xenograft
[11] = Tolerability in tumor-bearing mice; conditions: twice-weekly schedule
[12] = test system: HCT116 USP7^−/− cells; experiment: MTT viability, HCT116 USP7^−/−; format: cell-based, human; conditions: HCT116 USP7^−/− versus WT
[13] = test system: HCT116 p21^−/− cells; conditions: 48 hr, versus HCT116 (WT)
[14] = test system: U2OS cells; experiment: IC50 in U2OS cells; format: cell-based
[15] = mouse, in vivo
[16] = test system: MM.1S cells; experiment: Viability of scr- or HDM2-siRNA transfected MM.1S cells; format: cell-based, human; conditions: 24 hr
[17] = test system: HDM2; experiment: HDM2 ubiquitylation; format: cell-based; conditions: U2OS
[18] = test system: purified patient MM cells; experiment: Purified patient MM cell viability; format: cell-based, human; conditions: 8 MM patients, 48 hr
[19] = biological target: UCHL1 (Homo sapiens, UniProt P09936); experiment: DUB inhibition in cells; format: cell-based; conditions: Fig S1A
Chain of UCHL1 (P09936 whole entry): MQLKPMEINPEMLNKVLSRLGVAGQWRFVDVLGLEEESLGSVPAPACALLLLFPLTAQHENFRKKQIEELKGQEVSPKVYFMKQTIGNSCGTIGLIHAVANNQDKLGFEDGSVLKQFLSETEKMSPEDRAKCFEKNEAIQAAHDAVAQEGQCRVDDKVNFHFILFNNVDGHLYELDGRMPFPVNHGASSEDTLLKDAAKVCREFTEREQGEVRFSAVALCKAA

[20] = test system: MM cells; experiment: Apoptosis; format: cell-based, human; conditions: Fig S3E
[21] = test system: other DUBs or other families of cysteine proteases; experiment: Ub-PLA2 / protease panel, selectivity; format: biochemical; conditions: read-out: EC50, other DUBs or other families of cysteine proteases; Fig 1D
[22] = test system: CCRF-CEM leukemic tumors; experiment: CCRF-CEM leukemic xenograft; conditions: 10 mg/kg twice weekly for 3 weeks
[23] = test system: p53^−/−/MDM2^−/− MEFs; experiment: Viability, p53^−/−/MDM2^−/− MEFs; format: cell-based, mouse; conditions: 48 hr
[24] = biological target: UCHL3 (Homo sapiens, UniProt P15374); experiment: DUB inhibition in cells; format: cell-based; conditions: Fig S1A
Chain of UCHL3 (P15374 whole entry): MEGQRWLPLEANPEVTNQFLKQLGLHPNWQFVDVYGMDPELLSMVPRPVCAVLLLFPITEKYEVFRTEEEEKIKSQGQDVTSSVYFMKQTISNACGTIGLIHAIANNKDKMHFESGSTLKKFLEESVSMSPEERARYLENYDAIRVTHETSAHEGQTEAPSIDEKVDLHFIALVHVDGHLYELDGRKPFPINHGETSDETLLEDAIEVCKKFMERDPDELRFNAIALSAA

[25] = biological target: T1, USP7 (Homo sapiens, UniProt Q93009); experiment: Ubiquitin-linked K48 chain cleavage assay, USP7; format: biochemical; conditions: Ub7 and K48-linked chains
T1 sequence (Q93009 whole entry): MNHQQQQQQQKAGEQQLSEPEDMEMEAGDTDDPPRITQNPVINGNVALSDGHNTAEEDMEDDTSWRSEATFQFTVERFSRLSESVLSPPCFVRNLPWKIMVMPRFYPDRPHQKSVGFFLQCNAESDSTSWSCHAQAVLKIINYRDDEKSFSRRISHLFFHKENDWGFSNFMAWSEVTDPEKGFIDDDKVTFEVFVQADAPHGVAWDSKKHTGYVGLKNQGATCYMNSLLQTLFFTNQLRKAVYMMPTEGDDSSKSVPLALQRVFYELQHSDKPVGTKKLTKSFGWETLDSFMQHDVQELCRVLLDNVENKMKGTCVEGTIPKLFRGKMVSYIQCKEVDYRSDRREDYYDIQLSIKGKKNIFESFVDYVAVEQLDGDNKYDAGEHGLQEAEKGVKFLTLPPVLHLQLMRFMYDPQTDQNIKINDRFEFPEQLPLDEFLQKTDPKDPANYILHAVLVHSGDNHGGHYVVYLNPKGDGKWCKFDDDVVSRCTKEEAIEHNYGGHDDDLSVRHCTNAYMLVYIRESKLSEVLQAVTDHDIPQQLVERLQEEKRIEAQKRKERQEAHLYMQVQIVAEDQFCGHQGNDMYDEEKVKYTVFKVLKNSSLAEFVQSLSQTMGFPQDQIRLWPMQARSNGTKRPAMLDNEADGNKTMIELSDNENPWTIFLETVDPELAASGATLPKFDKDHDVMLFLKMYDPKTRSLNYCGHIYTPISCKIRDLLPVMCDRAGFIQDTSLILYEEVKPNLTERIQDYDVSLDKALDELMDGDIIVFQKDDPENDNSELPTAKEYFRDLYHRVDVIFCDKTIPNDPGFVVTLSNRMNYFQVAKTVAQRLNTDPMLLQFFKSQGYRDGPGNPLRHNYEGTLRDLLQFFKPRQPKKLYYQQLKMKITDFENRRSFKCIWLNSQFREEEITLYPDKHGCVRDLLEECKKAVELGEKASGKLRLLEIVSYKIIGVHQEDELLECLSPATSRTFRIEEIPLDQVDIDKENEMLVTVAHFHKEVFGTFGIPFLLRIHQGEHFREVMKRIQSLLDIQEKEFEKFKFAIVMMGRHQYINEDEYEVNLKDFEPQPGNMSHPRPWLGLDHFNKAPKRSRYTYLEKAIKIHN

[26] = test system: HCT116 p53 (WT) and HCT116 p53^−/− cells; experiment: Viability, HCT116 p53; format: cell-based, human; conditions: 72 hr
[27] = biological target: T1, USP7; experiment: Cellular USP7 activity in MM.1S cells, Ub-EKL assay after immunoprecipitation; format: cell-based; conditions: 3 hr, concentration-dependent
[28] = test system: p53^−/− MEFs; experiment: Viability, p53^−/− MEFs; format: cell-based, mouse; conditions: 48 hr
[29] = biological target: T1, USP7; experiment: Ub-PLA2 isopeptidase reporter assay, USP7; format: biochemical; conditions: for USP7 inhibitory activity (SAR): Fig 1C/1D
[30] = test system: INA-6 MM tumors; experiment: SCID-hu model, INA-6 MM tumors, serum shIL-6R; format: in vivo, mice; conditions: 10 mg/kg
[31] = test system: other DUBs; experiment: HA-UbVME probe labeling of other DUBs, HEK293T cells; format: cell-based; conditions: even at 40 μM
[32] = test system: HDM2, HDMX, p53, p21; experiment: Immunoblot of HDM2/HDMX/p53/p21 in MM.1S and RPMI-8226 cells; format: cell-based, human; conditions: 6.25 and 12.5 μM, 24 hr
[33] = biological target: T1, USP7; experiment: HA-UbVME active site probe competition, HEK293T cells; format: cell-based; conditions: lysates from treated HEK293T cells; concentrations as low as
[34] = test system: MM.1S cells; experiment: Viability of scr- or p53-siRNA transfected MM.1S cells; format: cell-based, human; conditions: 48 hr
[35] = test system: MM.1S cells cultured with BMSCs; experiment: MM.1S proliferation with BMSCs, 3H-TdR uptake; format: cell-based, human; conditions: 72 hr
[36] = test system: MM cell lines; experiment: MM cell line viability; format: cell-based, human
[37] = 10 mg/kg IV twice weekly for 3 weeks

CC(C)C[C@H](NC(=O)[C@H](Cc1ccccc1)NC(=O)c1cnccn1)B(O)O [bortezomib, reference compound]
Decrease in viability [1]: 10%–50%
IC50 ([2]; 48 h): 0.00232 µM
IC50 ([3]; 48 h): 0.0121 µM
Chymotrypsin-like (CT-L) proteasome activity [4]: blocks

CC(=O)c1cc([N+](=O)[O-])c(Sc2cccc(Cl)c2Cl)s1 [P5091]
IC50 ([2]; ANBL-6.WT, 48 hr): 6.83 µM
Cell viability [5]: decreased the viability
Effect of p21 silencing with siRNA on cytotoxicity [6]: attenuates P5091-induced cytotoxicity
Inhibition of USP5 [7]: did not inhibit
Survival [8, 37]: prolongs survival
Tumor growth [8, 37]: inhibits MM tumor growth
Proliferation in harvested tumors ([8]; BrdU and Ki67 staining): decreases proliferation
Apoptotic tumor cells ([8]; cleaved caspase-3, TUNEL, versus vehicle): increases the number of cleaved-caspase-3-, and TUNEL-positive apoptotic tumor cells
Angiogenesis markers in tumors ([8]; immunostaining VEGFR2, PECAM1): decreases the number of VEGFR2- and PECAM1-positive cells
USP7 activity in harvested tumors ([8]; relative to control mice): inhibited USP7 activity
Cell viability [9]: decreases the viability
Survival [10, 37]: prolongs survival
Tumor growth [10, 37]: inhibits MM tumor growth
USP7 activity in tumors ([10]; compared with control mice, at 3 hr): marked inhibition of USP7 activity
IC50 ([3]; ANBL-6.BR, 48 hr): 9.85 µM
IC50 ratio (ANBL-6.BR/ANBL-6.WT) ([3]; p < 0.001): significantly less than bortezomib
MTD dose [11]: 20 mg/kg
Cytotoxic activity [12]: marked reduction in P5091 cytotoxic activity
Cytotoxicity in HCT116 p21^−/− cells [13]: significantly blocked
IC50 [14]: 15 µM
Blood chemistry profile [15]: normal levels of bilirubin, hemoglobin, and creatinine
Weight loss [15]: no significant weight loss
Percentage of viable cells ([16]; HDM2-siRNA, P5091 6.25 μM): 73.3%
Percentage of viable cells ([16]; HDM2-siRNA, P5091 12.5 μM): 19.2%
Percentage of viable cells ([16]; scr-siRNA, P5091 6.25 μM): 47.2%
Percentage of viable cells ([16]; scr-siRNA, P5091 12.5 μM): 8.6%
HDM2 degradation ([17]; 15 μM, versus CHX alone): accelerates the degradation of HDM2
HDM2 ubiquitination ([17]; HA-Ub transfected, 30 μM, 4 hr): markedly increases HDM2 ubiquitination
Viability of patient MM cells [18]: dose-dependent decrease in the viability
Inhibition of UCHL1 [19]: did not inhibit
Apoptosis (Annexin V/PI) [20]: accumulation of cells in early (Ann V^+/PI^−) and late stage (Ann V^+/PI^+) apoptosis
EC50 [21]: > 100 µM
Survival [22]: prolongs survival
Tumor growth [22]: inhibits leukemic tumor growth
Caspase-like (C-L) proteasome activity ([4]; 25–50 μM): no effect
Trypsin-like (T-L) proteasome activity ([4]; 25–50 μM): no effect
Chymotrypsin-like (CT-L) proteasome activity [4]: no significant inhibition
IC50 [23]: 20.9 µM
Inhibition of UCHL3 [24]: did not inhibit
USP7-mediated cleavage of poly ubiquitin chains [25]: inhibited in a dose-dependent manner
Cytotoxicity in HCT116 p53 (WT) versus HCT116 p53^−/− [26]: equipotent cytotoxicity in both cell types
Inhibition of USP7 activity [27]: > 50%
IC50 [28]: 7.72 µM
EC50 ([29]; read-out: EC50, deubiquitylating activity against USP7, Ub-PLA2 reporter assay): 4.2 ± 0.9 µM
Tumor growth (serum shIL-6R) [30]: inhibited tumor growth
Labeling of other DUBs with Ub-VME [31]: No gross difference
HDM2, HDMX, p53 and p21 protein levels [32]: decreased HDM2 and HDMX, as well as upregulated p53 and p21 levels
Concentration inhibiting Ub-USP7 conjugate formation (HA-UbVME labeling) [33]: 5 to 10 µM
Effect of p53 depletion by siRNA on drug-induced decrease in viability [34]: does not affect
BMSCs-induced proliferation of MM.1S [35]: inhibited BMSCs-induced proliferation

CC(=O)c1cc([N+](=O)[O-])c(Sc2ccccc2)s1 [P22074]
Effect on viability of MM cell lines [36]: no significant effect
USP7 inhibitory activity (SAR) [29]: inactive
USP7 inhibitory activity (SAR) ([29]; listed as 1): not active
